One series deals with T1, progesterone receptor (Sus scrofa, UniProt D0EWS6).
T1 construct: thereby preparing a cytosol containing progesterone receptor; from tissue; host or cells: hog uterus, cytosol (100,000×g supernatant)
T1 sequence (D0EWS6 1-934): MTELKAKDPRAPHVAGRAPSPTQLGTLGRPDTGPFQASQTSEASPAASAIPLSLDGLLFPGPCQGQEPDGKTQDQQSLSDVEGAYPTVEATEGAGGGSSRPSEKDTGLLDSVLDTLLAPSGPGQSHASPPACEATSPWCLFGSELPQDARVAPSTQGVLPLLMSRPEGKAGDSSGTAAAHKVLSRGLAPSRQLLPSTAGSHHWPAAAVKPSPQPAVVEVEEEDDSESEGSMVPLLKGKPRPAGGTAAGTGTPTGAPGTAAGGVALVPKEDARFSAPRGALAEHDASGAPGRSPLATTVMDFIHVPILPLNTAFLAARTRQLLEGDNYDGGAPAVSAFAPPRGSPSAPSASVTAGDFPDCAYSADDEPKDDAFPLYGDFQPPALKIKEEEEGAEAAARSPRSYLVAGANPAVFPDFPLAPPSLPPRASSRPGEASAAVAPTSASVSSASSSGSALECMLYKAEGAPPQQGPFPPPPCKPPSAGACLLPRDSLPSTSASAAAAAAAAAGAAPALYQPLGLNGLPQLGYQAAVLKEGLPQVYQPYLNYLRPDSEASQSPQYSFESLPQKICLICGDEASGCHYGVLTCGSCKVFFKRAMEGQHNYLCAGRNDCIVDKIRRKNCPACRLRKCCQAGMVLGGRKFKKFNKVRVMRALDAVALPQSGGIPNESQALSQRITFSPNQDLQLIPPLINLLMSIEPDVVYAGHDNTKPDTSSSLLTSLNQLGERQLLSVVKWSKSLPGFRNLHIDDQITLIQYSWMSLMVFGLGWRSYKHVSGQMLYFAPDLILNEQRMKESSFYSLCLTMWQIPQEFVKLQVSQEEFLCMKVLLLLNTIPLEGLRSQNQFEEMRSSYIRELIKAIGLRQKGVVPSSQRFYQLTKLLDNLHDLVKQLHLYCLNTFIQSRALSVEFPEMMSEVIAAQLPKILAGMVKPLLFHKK
Description: progesterone receptor binding inhibition ([^3 H]-progesterone, hog uterus cytosol). Also noted: species or system hogs. Conditions: [^3 H]-progesterone ligand, 60 min at 4° C., read-out: Inhibitory activity against progesterone receptor binding (IC50). The method, then:
Uteri taken from hogs in 5 mM phosphate buffer were disrupted using Polytron homogenizer, and the resulting solution was centrifuged (100,000×g, 30 min) to separate the supernatant, thereby preparing a cytosol containing progesterone receptor. […] Then, 100 μl of a 0.5% activated carbon solution was added to the reaction solution, and the mixture was allowed to stand for 10 min and then centrifuged (2,000×g, 10 min). The radioactivity of the supernatant was measured with a liquid scintillation counter.
Separately, the radioactivity was measured in the same manner as described above, except that no test drug was added. Further, the radioactivity was measured in the same manner as described above, except that 10 μl of Medroxyprogesterone Acetate (MPA) (10 μg/ml) was added instead of the test drug. The radioactivity with no test drug added was defined as the amount of total binding of [^3 H]-progesterone to the cytosol, and the radioactivity with MPA added was defined as the amount of non-specific binding. The inhibition ratio was calculated from these measured values by the following equation to determine the binding inhibitory activity (IC50).
Inhibition ratio (%)= [formula]

Series [1] is described as follows: Test on Toxicity upon Continuous Administration. Conditions: 60 mg/kg, subcutaneous, 16 week-old male SD rats (five). The class given is in vivo. The method, then:
A homogeneous suspension of the compound, according to the present invention, prepared in Example 8 in a 0.2% aqueous methyl cellulose solution was subcutaneously administered to 16 week-old male SD rats (five rats). The dose of the compound prepared in Example 8 was 60 mg/kg.

The pIC50 is the IC50 on a negative log10 scale, so that one unit is a factor of ten.

pIC50: −log10 of the molar value.

As to `CC1=C2C[C@@]3(C)C(=CC[C@H](OC(=O)n4ccnc4)[C@@H]3C)C=C2N(C)C1=O` [Example 115, (4aR,5R,6S)-6-(Imidazol-1-ylcarbonyloxy)-4a,5,6,7-tetrahydro-1,3,4a,5-tetramethylbenz[f]indol-2(4H)-one], at progesterone receptor, the pIC50 is 7.66. With `CCS[C@@H]1C=C2C=C3C(=C(C)C(=O)N3C)C[C@]2(C)[C@@H](C)[C@H]1OC(=O)N1CCCC1` [Example 108, (4aR,5R,6R,7R)-7-Ethylthio-6-(pyrrolidin-1-ylcarbonyloxy)-4a,5,6,7-tetrahydro-1,3,4a,5-tetramethylbenz[f]indol-2(4H)-one], the pIC50 on progesterone receptor was 6.81. On the same count and under the same terms, the figure for `CO[C@H]1[C@H](OC)C=C2C=C3C(=C(C)C(=O)N3C)C[C@]2(C)[C@H]1C` [Example 34, (4aR,5R,6R,7R)-6,7-Dimethoxy-4a,5,6,7-tetrahydro-1,3,4a,5-tetramethylbenz[f]indol-2(4H)-one] is 7.38; for `CCS[C@@H]1C=C2C=C3C(=C(C)C(=O)N3C)C[C@]2(C)[C@@H](C)[C@H]1O` [Example 100, (4aR,5R,6R,7R)-7-Ethylthio-6-hydroxy-4a,5,6,7-tetrahydro-1,3,4a,5-tetramethrlbenz[f]indol-2(4H)-one] it is 6.92; for `CO[C@@H]1C=C2C=C3C(=C(C)C(=O)N3C)C[C@]2(C)[C@@H](C)[C@H]1OC(C)=O` [Example 25, (4aR,5R,6R,7R)-6-Acetoxy-7-methoxy-4a,5,6,7-tetrahydro-1,3,4a,5-tetramethylbenz[f]indol-2(4H)-one] it is 7.60. Still for that read-out and setting: the figure for `CCCNC(=O)O[C@H]1[C@H](SCC)C=C2C=C3C(=C(C)C(=O)N3C)C[C@]2(C)[C@H]1C` [Example 107, (4aR,5R,6R,7R)-7-Ethylthio-6-propylcarbamoyloxy-4a,5,6,7-tetrahydro-1,3,4a,5-tetramethylbenz[f]indol-2(4H)-one] is 6.81.

In the case of `CCC(=O)O[C@H]1CC=C2C=C3C(=C(C)C(=O)N3C)C[C@]2(C)[C@H]1C` [Example 113, (4aR,5R,6S)-6-Propionyloxy-4a,5,6,7-tetrahydro-1,3,4a,5-tetramethylbenz[f]indol-2(4H)-one], the pIC50 on progesterone receptor is 7.00. Same read-out and setting: the figure for `CCC(=O)O[C@H]1[C@H](OC)C=C2C=C3C(=C(C)C(=O)N3C)C[C@]2(C)[C@H]1C` [Example 26, (4aR,5R,6R,7R)-7-Methoxy-6-propionyloxy-4a,5,6,7-tetrahydro-1,3,4a,5-tetramethylbenz[f]indol-2(4H)-one] is 7.77.

Regarding `CC(=O)O[C@@H]1C=C2C=C3C(=C(C)C(=O)N3C)C[C@]2(C)[C@@H](C)[C@H]1OC(=O)c1ccco1` [Example 4, (4aR,5R,6R,7R)-7-Acetoxy-6-(2-furancarbonyloxy)-4a,5,6,7-tetrahydro-1,3,4a,5-tetramethylbenz[f]indol-2(4H)-one], the pIC50 at progesterone receptor is 7.49. For `CCS[C@@H]1C=C2C=C3C(=C(C)C(=O)N3C)C[C@]2(C)[C@@H](C)[C@H]1OC(=O)CC` [Example 101, (4aR,5R,6R,7R)-7-Ethylthio-6-propionyloxy-4a,5,6,7-tetrahydro-1,3,4a,5-tetramethylbenz[f]indol-2(4H)-one], at progesterone receptor, the pIC50 was 6.79. For the molecule `CC1=C2C[C@@]3(C)C(=CC[C@H](OC(=O)N4CCCC4)[C@@H]3C)C=C2N(C)C1=O` [Example 117, (4aR,5R,6S)-6-(Pyrrolidin-1-ylcarbonyloxy)-4a,5,6,7-tetrahydro-1,3,4a,5-tetramethylbenz[f]indol-2(4H)-one], at progesterone receptor, the negative logarithm of the IC50 (pIC50) is 7.51.

`C=CCO[C@H]1[C@H](OC)C=C2C=C3C(=C(C)C(=O)N3C)C[C@]2(C)[C@H]1C` [Example 41, (4aR,5R,6R,7R)-7-Methoxy-6-(2-propenyloxy)-4a,5,6,7-tetrahydro-1,3,4a,5-tetramethylbenz[f]indol-2(4H)-one]: on progesterone receptor, the pIC50 is 7.36. Consider `CCCO[C@H]1[C@H](OC)C=C2C=C3C(=C(C)C(=O)N3C)C[C@]2(C)[C@H]1C` [Example 36, (4aR,5R,6R,7R)-7-Methoxy-6-propoxy-4a,5,6,7-tetrahydro-1,3,4a,5-tetramethylbenz[f]indol-2(4H)-one], for which the pIC50 at progesterone receptor was 7.29. As for `CCC(=O)O[C@H]1[C@H](OC(=O)CC)C=C2C=C3C(=C(C)C(=O)N3C)C[C@]2(C)[C@H]1C` [Example 8, (4aR,5R,6R,7R)-6,7-Dipropionyloxy-4a,5,6,7-tetrahydro-1,3,4a,5-tetramethylbenz[f]indol-2(4H)-one], in series [1], the special symptoms result is on record as “without no special symptom” and the survival of rats entry is recorded as “All the rats remained survived”. Regarding `CCC(=O)O[C@H]1[C@H](SC)C=C2C=C3C(=C(C)C(=O)N3C)C[C@]2(C)[C@H]1C` [Example 97, (4aR,5R,6R,7R)-7-Methylthio-6-propionyloxy-4a,5,6,7-tetrahydro-1,3,4a,5-tetramethylbenz[f]indol-2(4H)-one], the pIC50 on progesterone receptor was 7.19. The same measure, in the same setting: the figure for `CO[C@@H]1C=C2C=C3C(=C(C)C(=O)N3C)C[C@]2(C)[C@@H](C)[C@H]1OC(=O)c1cccs1` [Example 31, (4aR,5R,6R,7R)-7-Methoxy-4a,5,6,7-tetrahydro-1,3,4a,5-tetramethyl-6-(2-thiophenecarbonyloxy)benz[f]indol-2(4H)-one] is 7.33; for `CCC(=O)O[C@H]1[C@H](OC(C)=O)C=C2C=C3C(=C(C)C(=O)N3C)C[C@]2(C)[C@H]1C` [Example 3, (4aR,5R,6R,7R)-7-Acetoxy-6-propionyloxy-4a,5,6,7-tetrahydro-1,3,4a,5-tetramethylbenz[f]indol-2(4H)-one] it is 7.55. Regarding `CCS[C@@H]1C=C2C=C3C(=C(C)C(=O)N3C)C[C@]2(C)[C@@H](C)[C@H]1OC(=O)n1ccnc1` [Example 106, (4aR,5R,6R,7R)-7-Ethylthio-6-(imidazol-1-ylcarbonyloxy)-4a,5,6,7-tetrahydro-1,3,4a,5-tetramethylbenz[f]indol-2(4H)-one], the pIC50 on progesterone receptor is 6.86. Same read-out and setting: the figure for `CCCNC(=O)O[C@H]1CC=C2C=C3C(=C(C)C(=O)N3C)C[C@]2(C)[C@H]1C` [Example 116, (4aR,5R,6S)-6-Propylcarbamoyloxy-4a,5,6,7-tetrahydro-1,3,4a,5-tetramethylbenz[f]indol-2(4H)-one] is 7.72; for `CO[C@@H]1C=C2C=C3C(=C(C)C(=O)N3C)C[C@]2(C)[C@@H](C)[C@H]1OC(=O)c1ccco1` [Example 32, (4aR,5R,6R,7R)-6-(2-Furancarbonyloxy)-7-methoxy-4a,5,6,7-tetrahydro-1,3,4a,5-tetramethylbenz[f]indol-2(4H)-one] it is 7.57; for `CCO[C@H]1[C@H](OC)C=C2C=C3C(=C(C)C(=O)N3C)C[C@]2(C)[C@H]1C` [Example 35, (4aR,5R,6R,7R)-6-Ethoxy-7-methoxy-4a,5,6,7-tetrahydro-1,3,4a,5-tetramethylbenz[f]indol-2(4H)-one] it is 7.44.

In the case of `CS[C@@H]1C=C2C=C3C(=C(C)C(=O)N3C)C[C@]2(C)[C@@H](C)[C@H]1OC(=O)n1ccnc1` [Example 99, (4aR,5R,6R,7R)-6-(Imidazol-1-ylcarbonyloxy)-7-methylthio-4a,5,6,7-tetrahydro-1,3,4a,5-tetramethylbenz[f]indol-2(4H)-one], at progesterone receptor, the pIC50 is 7.18.

For the origin of these results see US6077840A, “Tetrahydrobenzindolone derivatives” (Meiji Seika Kaisha, Ltd., priority 1996, dated 2000).
